Columns and labels:
Streptococcus mutans = assay: anti-bacterial growth inhibition, S. mutans; format: cell-based; settings: Streptococcus mutans, 10 h
[1] = system: HCT-116 human colorectal carcinoma xenograft tumor; assay: HCT-116 nude mouse xenograft model; format: in vivo, BALB/c nude mice; settings: for Body weight: tumor-bearing nude mice, D-res 100 mg/kg i.p.
Description: All animal studies were approved and performed according to Animal Care and Use Guidelines of the Animal Ethics Committee at Hong Kong Baptist University. BALB/c nude mice, SPF class, male, 6-8 weeks old, were purchased from BioLASCO, Taiwan. Before the xenograft experiment, the mice were acclimatized to SPF class laboratory conditions for a week.
HCT-116 cells in logarithmic growth phase were collected by trypsinization. After centrifugation and rinsing, cells were re-suspended in serum-free DMEM medium at 3×10^7 cells/mL. Nude mice were skin disinfected with 75% medical ethanol, subcutaneously injected with 100 μL of the HCT-116 cell suspension using a 25-G syringe to their left flank. The same procedure was repeated for the tumor cell injection to the right flank.
Seven days after tumor cell injection, 24 mice with tumor volumes of 32 mm^3 to 178 mm^3 were randomly assigned into 3 groups; the average initial tumor volumes in each group of mice were 78.04±7.76 mm^3 (vehicle, 8 mice), 78.76±9.40 mm^3 (5-FU, 8 mice), 78.01±7.75 mm^3 (D-res, 8 mice) respectively.
Vehicle solution: 2.5% Ethanol and Cremphor EL (1:1 v/v) dissolved in physiological saline.
5-FU solution: 5-FU powder was dissolved in 2.5% Ethanol and Cremphor EL to a concentration of 5 mg/mL.
D-res solution: Dihydro-resveratrol powder was dissolved in 2.5% Ethanol and Cremphor EL solution to a concentration of 20 mg/mL.
Vehicle group (n=8): 2.5% Ethanol and Cremphor EL solution was intraperitoneally injected every other day for 21 days.
5-FU group (n=8): 5-FU solution was given to mice at 25 mg/kg by intraperitoneal injection every other day for 21 days.
D-res group (n=8): D-res solution was given to mice at 100 mg/kg by intraperitoneal injection every other day for 21 days. This is equivalent to a dosage of no less than 8.13 mg/kg of bodily weight in human.

[2] = system: PANC-1 human pancreatic ductal adenocarcinoma cells; assay: cell migration assay, PANC-1; format: cell-based; settings: PANC-1, 25 μM, 24-h treatment
[3] = system: cerulein-induced acute pancreatitis and associated pulmonary injury; assay: cerulein-induced acute pancreatitis in rats, oral dihydro-resveratrol; format: in vivo, Sprague-Dawley rats
Description: Among the several established animal models, repetitive intraperitoneal (i.p.) injection of cholecystokinin secretagogue, cerulein, is the most widely used and a highly reproducible method for the production of an experimental acute pancreatitis. Followed by a single shot of lipopolysaccharide (LPS), pulmonary injury characterized by neutrophil sequestration in the lung tissues and increased permeability of the alveolar membrane barrier is often observed as an acute pancreatitis associated complication. For the diagnosis of the onset of acute pancreatitis, bulky leakage of digestive enzymes, namely α-amylase, into the bloodstream is regarded as the principal pathological parameter. For evaluating the severity of acute pancreatitis and the associated pulmonary injury, morphological alterations of organ architecture including interstitial edema, cellular damage, leukocyte infiltration and hemorrhage are characterized as the histological and/or pathological parameters. Besides histological examination, aberrant MPO activity is often measured for assessing the severity of neutrophil-mediated inflammatory condition. Both the local and systemic inflammatory responses can be further confirmed by the high levels of pro-inflammatory cytokines present in the homogenates of affected tissues. Moreover, glutathione depletion, a defense mechanism, is one of the most common parameters for assessing the severity of tissue injury.
Evaluation of biological activities. Sprague-Dawley rats aged 28 days weighing in the range of 70 to 90 g were randomly assigned into 6 groups of 6 to 8 individuals. The rats were housed with an ambient temperature of 23±2° C., a relative humidity of 60 to 80% and a 12-h light/dark cycle. Prior to the experiment, the rats were starved overnight but allowed with free access to water. Experimental acute pancreatitis was induced in the rats by six hourly i.p. injections of cerulein at the supramaximally stimulating dose (50 μg/kg) followed by a single dose of LPS at 7.5 mg/kg 1 h after the last cerulein injection, and this group of rats was designated as the cerulein group. The control group received injections of 0.9% saline instead of cerulein in the same volume and at same time intervals. The treatment groups given with cerulein and oral doses of dihydro-resveratrol (10, 20 or 50 mg/kg) were designated as Cerulein+D-res 10 or 20 or 50 mg/kg. The therapeutic intervention was given 30 minutes after the first cerulein injection for three consecutive hours. Upon scarification, pancreata were immediately removed, weighed, trimmed from fat and fixed in 4% paraformaldehyde-phosphate buffered saline overnight at 4° C. Samples were then processed, embedded in paraffin wax, sectioned and subjected to H&E staining. Levels of TNF-α in pancreatic and pulmonary samples were determined using commercial ELISA kits. Tissue homogenates were subjected to biochemical assays for the evaluation of MPO activity and glutathione content.

[4] = 21-day administration, 100 mg/kg i.p.

Question: For `Oc1ccc(CCc2cc(O)cc(O)c2)cc1` [Dihydro-resveratrol, trans-3,5,4′-trihydroxybibenzyl], which inhibition at 25 µM (Streptococcus mutans; read-out: Inhibition rate (25 μM)) is on record?
Answer: The inhibition at 25 µM was 6.32%.

Question: And the inhibition at 50 µM (Streptococcus mutans; read-out: Inhibition rate (50 μM))?
Answer: Its inhibition at 50 µM is 2.34%.

Question: What about the inhibition at 100 µM (Streptococcus mutans; read-out: Inhibition rate (100 μM)) of the same compound?
Answer: Its inhibition at 100 µM is 2.09%.

Question: What about the “effect on body weight of the nude mice” value [1, 4] of the same compound?
Answer: The value was “did not lead to a notable reduction in body weight”.

Question: And the “growth of xenograft tumor (size, volume, weight) compared to 5-FU” value [1, 4]?
Answer: The value was “more sufficiently restrained”.

Question: And the “Tumor Volume (mm^3)” value ([1]; Day 1 (initial), i.p. every other day, 5-FU 25 mg/kg, D-res 100 mg/kg)?
Answer: Its value is 78.01 ± 7.75 mm^3.

Question: And the “Body weight” value ([1]; Day 1, 5-FU 25 mg/kg)?
Answer: Its value is 20.69 ± 0.55 g.

Question: What about the “Tumor Volume (mm^3)” value ([1]; Day 4, i.p. every other day, 5-FU 25 mg/kg, D-res 100 mg/kg) of the same compound?
Answer: The value was 137.54 ± 14.69 mm^3.

Question: And the “Body weight” value ([1]; Day 4, 5-FU 25 mg/kg)?
Answer: The value was 20.76 ± 0.65 g.

Question: What about the “Tumor Volume (mm^3)” value ([1]; Day 7, i.p. every other day, 5-FU 25 mg/kg, D-res 100 mg/kg) of the same compound?
Answer: Its value is 167.58 ± 22.65 mm^3.

Question: And the “Body weight” value ([1]; Day 7, 5-FU 25 mg/kg)?
Answer: Its value is 20.33 ± 0.9 g.

Question: And the “Tumor Volume (mm^3)” value ([1]; Day 10, i.p. every other day, 5-FU 25 mg/kg, D-res 100 mg/kg)?
Answer: Its value is 273.28 ± 41.5 mm^3.

Question: And the “Body weight” value ([1]; Day 10, 5-FU 25 mg/kg)?
Answer: Its value is 20.57 ± 0.66 g.

Question: What about the “Tumor Volume (mm^3)” value ([1]; Day 13, i.p. every other day, 5-FU 25 mg/kg, D-res 100 mg/kg) of the same compound?
Answer: The value was 355.48 ± 78.57 mm^3.

Question: And the “Body weight” value ([1]; Day 13, 5-FU 25 mg/kg)?
Answer: The value was 20.53 ± 0.82 g.

Question: What about the “Tumor Volume (mm^3)” value ([1]; Day 16, i.p. every other day, 5-FU 25 mg/kg, D-res 100 mg/kg) of the same compound?
Answer: The value was 409.35 ± 74.3 mm^3.

Question: And the “Body weight” value ([1]; Day 16, 5-FU 25 mg/kg)?
Answer: The value was 20.31 ± 0.88 g.

Question: What about the “Tumor Volume (mm^3)” value ([1]; Day 19, i.p. every other day, 5-FU 25 mg/kg, D-res 100 mg/kg) of the same compound?
Answer: Its value is 585.98 ± 110.96 mm^3.

Question: What about the “Body weight” value ([1]; Day 19, 5-FU 25 mg/kg) of the same compound?
Answer: Its value is 20.51 ± 0.87 g.

Question: And the “Tumor Volume (mm^3)” value ([1]; Day 21, i.p. every other day, 5-FU 25 mg/kg, D-res 100 mg/kg)?
Answer: Its value is 559.76 ± 100.63 mm^3.

Question: What about the “Body weight” value ([1]; Day 21, 5-FU 25 mg/kg) of the same compound?
Answer: The value was 18.79 ± 0.59 g.

Question: What about the “Tumor Volume (mm^3)” value ([1]; Day 22, i.p. every other day, 5-FU 25 mg/kg, D-res 100 mg/kg) of the same compound?
Answer: The value was 586.92 ± 88.51 mm^3.

Question: What about the “Body weight” value ([1]; Day 22, 5-FU 25 mg/kg) of the same compound?
Answer: Its value is 20.63 ± 0.99 g.

Question: And the “Tumor weight” value ([1]; treated for 21 days, i.p. every other day, 5-FU 25 mg/kg, D-res 100 mg/kg)?
Answer: Its value is 0.60 ± 0.11 g.

Question: And the migratory ability [2]?
Answer: Its migratory ability is “significant reduction in the migratory ability”.

Question: And the “Plasma α-amylase activities (mean)” value ([3]; Cerulein + D-Res 10 mg (oral 10 mg/kg))?
Answer: The value was 0.2891 U/μl/minute.

Question: And the “Plasma α-amylase activities (mean)” value ([3]; Cerulein + D-Res 20 mg (oral 20 mg/kg), #p<0.05 vs cerulein group)?
Answer: The value was 0.2498# U/μl/minute.

Question: And the “Plasma α-amylase activities (mean)” value ([3]; Cerulein + D-Res 50 mg (oral 50 mg/kg), #p<0.05 vs cerulein group)?
Answer: Its value is 0.2431# U/μl/minute.

Question: And the “MPO activities in pancreatic and pulmonary tissues” value ([3]; oral)?
Answer: Its value is “significantly reduced”.

Question: What about the “ameliorative effect on reducing pancreatic edema compared with trans-resveratrol” value ([3]; oral) of the same compound?
Answer: Its value is “more promising than that of trans-resveratrol”.

Question: And the “glutathione level in cerulein-induced pancreata” value ([3]; oral)?
Answer: Its value is “significantly suppressed glutathione depletion”.

Question: What about the “levels of TNF-α in pancreatic and pulmonary tissues” value ([3]; oral, ELISA) of the same compound?
Answer: Its value is “significantly reduced”.

Question: And the “focal expansion of interlobular septae, cytoplasmic shrinkage and leukocyte infiltration in pancreatic parenchyma” value ([3]; oral, H&E)?
Answer: The value was “remarkably reduced”.

Question: What about the “pulmonary wall thickening and hemorrhage in lung tissues” value ([3]; oral, H&E) of the same compound?
Answer: The value was “significantly improved”.

Question: What about the “pancreatic edema (weight ratio of pancreas to body)” value ([3]; oral, not less than 20 mg/kg) of the same compound?
Answer: The value was “notably reduced the pancreatic edema”.
